Source: ChEMBL document CHEMBL4190388, “Discovery and Optimization of Indolyl-Containing 4-Hydroxy-2-Pyridone Type II DNA Topoisomerase Inhibitors Active against Multidrug Resistant Gram-negative Bacteria” (J Med Chem, 2018)
Converted amounts (≈) assume the structure as drawn.

What was measured:
Assay type in all cases: functional
Escherichia coli [1] = experiment: Antibacterial activity against wild type Escherichia coli ATCC 25922 by CLSI M100-S17 protocol based method
Acinetobacter baumannii [2] = experiment: Antibacterial activity against fluoroquinolone resistant Acinetobacter baumannii isolate MMX2240 by CLSI M100-S17 protocol based method
Acinetobacter baumannii [3] = experiment: Antibacterial activity against wild type Acinetobacter baumannii ATCC BAA-747 by CLSI M100-S17 protocol based method
Klebsiella pneumoniae = experiment: Antibacterial activity against wild type Klebsiella pneumoniae ATCC 35657 by CLSI M100-S17 protocol based method
Escherichia coli [4] = experiment: Antibacterial activity against fluoroquinolone resistant Escherichia coli SKM18 by CLSI M100-S17 protocol based method
Escherichia coli [5] = experiment: Antibacterial activity against quinolone resistance Escherichia coli isolate ELZ4251 harboring gyrA/parC mutant by CLSI M100-S17 protocol based method
Escherichia coli [6] = experiment: Antibacterial activity against wild type Escherichia coli ATCC 25922 in presence of HSA by CLSI M100-S17 protocol based method

Row | Compound | MIC (Escherichia coli [1]) [µg/mL] | MIC (Acinetobacter baumannii [2]) [µg/mL] | MIC (Acinetobacter baumannii [3]) [µg/mL] | MIC (Klebsiella pneumoniae) [µg/mL] | MIC (Escherichia coli [4]) [µg/mL] | MIC (Escherichia coli [5]) [µg/mL] | MIC (Escherichia coli [6]) [µg/mL]
1 | CC(C)NCc1cc2cc3c(cc2n1C)COCc1c-3[nH]c(=O)c(C(=O)O)c1O | 12.5 (≈ 31.5 µM) | > 50 | > 50 | 3.1 (≈ 7.8 µM) | 0.78 (≈ 1.96 µM) |  | 
2 | CNCc1cc2cc3c(cc2n1C)NCCc1c-3[nH]c(=O)c(C(=O)O)c1O | 31.3 (≈ 85 µM) | > 25 | > 25 | 6.3 (≈ 17.1 µM) | 3.9 (≈ 10.6 µM) | > 62.5 | 
3 | Cc1c(-c2ccc3c(c2)cc(CN(C)C)n3C)[nH]c(=O)c(C(=O)O)c1O | 6.3 (≈ 17.7 µM) | 1.6 (≈ 4.5 µM) | 6.3 (≈ 17.7 µM) | 6.3 (≈ 17.7 µM) | 1.6 (≈ 4.5 µM) | 3.1 (≈ 8.72 µM) | 12.5
4 | CCc1c(-c2ccc3c(c2)cc(CNC(C)C)n3C)[nH]c(=O)c(C(=O)O)c1O | 0.39 (≈ 1.02 µM) | 3.1 (≈ 8.08 µM) | 0.78 (≈ 2.03 µM) | 0.39 (≈ 1.02 µM) | 1.6 (≈ 4.17 µM) | 3.1 (≈ 8.08 µM) | 1.6
5 | CCc1c(-c2ccc3c(c2)c(C)c(C)n3C)[nH]c(=O)c(C(=O)O)c1O | > 12.5 |  |  |  |  |  | 
6 | CC(C)NCc1cc2cc3c(cc2n1C)NCCc1c-3[nH]c(=O)c(C(=O)O)c1O | 7.8 (≈ 19.7 µM) | > 25 | > 25 | 6.3 (≈ 15.9 µM) | 3.9 (≈ 9.84 µM) | 62.5 (≈ 158 µM) | 
7 | COCCNCc1cc2cc3c(cc2n1C)OCCc1c-3[nH]c(=O)c(C(=O)O)c1O | 2 (≈ 4.84 µM) | 7.8 (≈ 18.9 µM) | 7.8 (≈ 18.9 µM) | 2 (≈ 4.84 µM) | 0.5 (≈ 1.21 µM) |  | 15.6
8 | CN(C)Cc1cc2cc3c(cc2n1C)COCc1c-3[nH]c(=O)c(C(=O)O)c1O | 6.3 (≈ 16.4 µM) | 25 (≈ 65.2 µM) | 25 (≈ 65.2 µM) | 3.1 (≈ 8.09 µM) | 0.78 (≈ 2.03 µM) |  | 
9 | CCc1c(-c2ccc3c(c2)cc(CNC(C)(C)C)n3C)[nH]c(=O)c(C(=O)O)c1O | 0.78 (≈ 1.96 µM) | 6.3 (≈ 15.9 µM) | 0.78 (≈ 1.96 µM) | 0.78 (≈ 1.96 µM) | 6.3 (≈ 15.9 µM) | 6.3 (≈ 15.9 µM) | 1.6
10 | Cn1c(CN2CCCC2)cc2cc3c(cc21)COCc1c-3[nH]c(=O)c(C(=O)O)c1O | 3.1 (≈ 7.57 µM) | 12.5 (≈ 30.5 µM) | 12.5 (≈ 30.5 µM) | 3.1 (≈ 7.57 µM) | 0.39 (≈ 0.953 µM) |  | 
11 | CCc1c(-c2ccc3c(c2)cc(CN2CCCC2)n3C)[nH]c(=O)c(C(=O)O)c1O | 0.78 (≈ 1.97 µM) | 12.5 (≈ 31.6 µM) | 0.78 (≈ 1.97 µM) | 0.78 (≈ 1.97 µM) | 6.3 (≈ 15.9 µM) | 6.3 (≈ 15.9 µM) | 
12 | COCCNCc1cc2cc3c(cc2n1C)CCCc1c-3[nH]c(=O)c(C(=O)O)c1O | 0.78 (≈ 1.9 µM) | 1 (≈ 2.43 µM) | 1.6 (≈ 3.89 µM) | 0.78 (≈ 1.9 µM) | 0.5 (≈ 1.22 µM) | 1.6 (≈ 3.89 µM) | 3.1
13 | CCc1c(-c2ccc(N(C)C)cc2)[nH]c(=O)c(C(=O)O)c1O | 0.78 (≈ 2.58 µM) | 6.3 (≈ 20.8 µM) | 1.6 (≈ 5.29 µM) | 3.1 (≈ 10.3 µM) | 15.6 (≈ 51.6 µM) | 15.6 (≈ 51.6 µM) | > 62.5
14 | CN(C)CCNCc1cc2cc3c(cc2n1C)CCCc1c-3[nH]c(=O)c(C(=O)O)c1O | 3.9 (≈ 9.19 µM) | 62.5 (≈ 147 µM) | 15.6 (≈ 36.7 µM) | 2 (≈ 4.71 µM) | 0.5 (≈ 1.18 µM) |  | 15.6
15 | CCNCc1cc2cc3c(cc2n1C)NCCc1c-3[nH]c(=O)c(C(=O)O)c1O | 15.6 (≈ 40.8 µM) | > 25 | > 25 | 6.3 (≈ 16.5 µM) | 3.9 (≈ 10.2 µM) | > 62.5 | 
16 | CN(C)Cc1cc2cc(-c3[nH]c(=O)c(C(=O)O)c(O)c3C3CC3)ccc2n1C | 62.5 (≈ 164 µM) | 15.6 (≈ 40.9 µM) | > 62.5 | 31.3 (≈ 82.1 µM) | 31.3 (≈ 82.1 µM) |  | > 62.5
17 | CCNCc1cc2cc3c(cc2n1C)OCCc1c-3[nH]c(=O)c(C(=O)O)c1O | 0.78 (≈ 2.03 µM) | 12.5 (≈ 32.6 µM) | 12.5 (≈ 32.6 µM) | 0.78 (≈ 2.03 µM) | 0.78 (≈ 2.03 µM) | 12.5 (≈ 32.6 µM) | 1.6
18 | COC1CCN(Cc2cc3cc4c(cc3n2C)CCCc2c-4[nH]c(=O)c(C(=O)O)c2O)C1 (configuration not stated) | 1.6 (≈ 3.66 µM) | 3.1 (≈ 7.09 µM) | 3.1 (≈ 7.09 µM) | 3.1 (≈ 7.09 µM) | 2 (≈ 4.57 µM) |  | 3.1
19 | CC(C)c1c(-c2ccc3c(c2)cc(CN(C)C)n3C)[nH]c(=O)c(C(=O)O)c1O | 3.1 (≈ 8.08 µM) | 62.5 (≈ 163 µM) | 15.6 (≈ 40.7 µM) | 3.9 (≈ 10.2 µM) | > 62.5 |  | 31.3
20 | COC1CCN(Cc2cc3cc4c(cc3n2C)OCCc2c-4[nH]c(=O)c(C(=O)O)c2O)C1 (configuration not stated) | 3.9 (≈ 8.87 µM) | 7.8 (≈ 17.7 µM) | 3.9 (≈ 8.87 µM) | 15.6 (≈ 35.5 µM) | 2 (≈ 4.55 µM) |  | 7.8
21 | CN(C)Cc1cc2cc(-c3cc(O)c(C(=O)O)c(=O)[nH]3)ccc2n1C | > 12.5 |  |  |  | > 12.5 |  | 
22 | CN(C)CCNCc1cc2cc3c(cc2n1C)OCCc1c-3[nH]c(=O)c(C(=O)O)c1O | > 62.5 | > 62.5 | > 62.5 | 31.3 (≈ 73.4 µM) | 7.8 (≈ 18.3 µM) |  | 62.5
23 | CNCc1cc2cc3c(cc2n1C)OCCc1c-3[nH]c(=O)c(C(=O)O)c1O | 1.6 (≈ 4.33 µM) | > 12.5 | 12.5 (≈ 33.8 µM) | 1.6 (≈ 4.33 µM) | 0.78 (≈ 2.11 µM) | > 12.5 | 3.1
24 | CN(C)Cc1cc2cc3c(cc2n1C)SCCc1c-3[nH]c(=O)c(C(=O)O)c1O | 2 (≈ 5.01 µM) | 3.9 (≈ 9.76 µM) | 2 (≈ 5.01 µM) | 2 (≈ 5.01 µM) | 2 (≈ 5.01 µM) |  | 31.2
25 | Cn1c(CN2CCCC2)cc2cc3c(cc21)SCCc1c-3[nH]c(=O)c(C(=O)O)c1O | 2 (≈ 4.7 µM) | 3.9 (≈ 9.17 µM) | 2 (≈ 4.7 µM) | 2 (≈ 4.7 µM) | 2 (≈ 4.7 µM) |  | 31.3
26 | CCc1c(-c2ccc3c(c2)cc(CNC)n3C)[nH]c(=O)c(C(=O)O)c1O | 0.39 (≈ 1.1 µM) | 6.3 (≈ 17.7 µM) | 0.78 (≈ 2.19 µM) | 0.78 (≈ 2.19 µM) | 1.6 (≈ 4.5 µM) | 3.1 (≈ 8.72 µM) | 0.78
